In data set [1] the test system is B16-F10. Nature of the data set: Induction of cell cycle arrest in mouse B16-F10 cells assessed as decrease in cells at G1 phase at 0.1 to 1 uM incubated for 48 hrs by RNase/PI staining based flow cytometry analysis. The format is functional. As to conditions: dose 0.1-1 µM.
Data set [2] is described as follows: Tmax in Sprague-Dawley rat at 2 mg/kg, iv measured upto 48 hrs by LC-MS/MS analysis. As to conditions: in vivo. The format is ADME, organism-based.
The nature of data set [3]: Toxicity in C57BL/6 mouse allografted with B16-F10 cells assessed as body weight loss at 50 mg/kg, ip administered daily for 14 days in combination with 2-(5-chloro-2-(3-cyanobenzyloxy)-4-((2-methylbiphenyl-3-yl)methoxy)benzylamino)-2-methylpropanoic acid. Type of data set: organism-based. As to conditions: in vivo, 336 h, time 14 day.
A short description of data set [4]: Potency index, ratio of MS-275 IC50 to test compound IC50 for antiproliferative activity against human YCC3/7 cells assessed as cell growth inhibition. The format is functional.
In data set [5] the test system is B16-F10. Nature of the data set: Antitumour activity against mouse B16-F10 cells allografted in C57BL/6 mouse model assessed as increase in CD3 positive/CD4 positive cells in tumor at 50 mg/kg, ip administered for 14 days by flow cytometry analysis (Rvb= 8.73%). The format is functional. As to conditions: time 14 day. On the technique in general: A flow cytometer gives signals particle by particle.

Data set [6] in a line: Toxicity in C57BL/6 mouse allografted with B16-F10 cells assessed as body weight loss at 50 mg/kg, ip administered daily for 14 days. The following applies: in vivo, 336 h, time 14 day. The format is organism-based.
Data set [7] in a line: Half life in Sprague-Dawley rat at 2 mg/kg, iv measured upto 48 hrs by LC-MS/MS analysis. The format is ADME, organism-based. The following applies: in vivo.
A short description of data set [8]: Cardiotoxicity in C57BL/6 mouse at 50 mg/kg, IG administered once daily via gavage for 14 days by ECG analysis. The format is toxicity, organism-based. As to conditions: in vivo, po, 336 h, time 14 day.
Data set [9] in a line: AUC(0 to t) in Sprague-Dawley rat at 10 mg/kg, po measured upto 48 hrs by LC-MS/MS analysis. The format is ADME, organism-based. Set-up: route oral, dose 10 mg/kg, time <=48. The following applies: in vivo.
Data set [10] in a line: AUC (0 to infinity) in Sprague-Dawley rat at 2 mg/kg, iv measured upto 48 hrs by LC-MS/MS analysis. The format is ADME, organism-based. Set-up: route intravenous, dose 2 mg/kg, time <=48. The following applies: in vivo.
Data set [11] can be described thus: Toxicity in C57BL/6 mouse bearing B16-F10 tumor assessed as morphological changes in kidney at 50 mg/kg, ip administered for 14 days by H and E staining based microscopic analysis. The format is organism-based. The following applies: in vivo, 336 h, time 14 day.
Data set [12] has as its system B16-F10. Nature of the data set: Antitumour activity against mouse B16-F10 cells allografted in C57BL/6 mouse model assessed as increase in CD3 positive/CD4 positive cells in tumor at 50 mg/kg, ip administered for 14 days in presence of 2-(5-chloro-2-(3-cyanobenzyloxy)-4-((2-methylbiphenyl-3-yl)methoxy)benzylamino)-2-methylpropanoic acid by flow cytometry analysis (Rvb= 8.73%). The following applies: time 14 day. Type of data set: functional.

The nature of data set [13]: Toxicity in C57BL/6 mouse bearing B16-F10 tumor assessed as morphological changes in liver at 50 mg/kg, ip administered for 14 days by H and E staining based microscopic analysis. The format is organism-based. The following applies: in vivo, 336 h, time 14 day.
Data set [14] deals with B16-F10. The data set is described as follows: Antitumor activity against mouse B16-F10 cells allografted in C57BL/6 mouse assessed as tumor growth inhibition at 10 mg/kg, ip administered daily for 14 days by caliper method (Rvb= 63%). Type of data set: functional. As to conditions: 336 h, time 14 day, read-out: TGI.
The nature of data set [15]: Cmax in Sprague-Dawley rat at 2 mg/kg, iv measured upto 48 hrs by LC-MS/MS analysis. Type of data set: ADME, organism-based. The arrangement: route intravenous, dose 2 mg/kg, time <=48. The following applies: in vivo.
A short description of data set [16]: MRT (0 to infinity) in Sprague-Dawley rat at 10 mg/kg, po measured upto 48 hrs by LC-MS/MS analysis. Type of data set: ADME, organism-based. As to conditions: in vivo.
Data set [17] is described as follows: Tmax in Sprague-Dawley rat at 10 mg/kg, po measured upto 48 hrs by LC-MS/MS analysis. The format is ADME, organism-based. The following applies: in vivo.
A short description of data set [18]: Resistance index, ratio of IC50 for antiproliferative activity against human YCC3/7 cells to IC50 for antiproliferative activity against human YCC-11 cells. Type of data set: functional.
A short description of data set [19]: Apparent volume of distribution in Sprague-Dawley rat at 2 mg/kg, iv measured upto 48 hrs by LC-MS/MS analysis. Type of data set: ADME, organism-based. The following applies: in vivo.
For data set [20], the system named is B16-F10. The data set is described as follows: Antitumor activity in mouse B16-F10 cells allografted in C57BL/6 mouse assessed as tumor growth inhibition at 50 mg/kg, ip administered for 14 days in presence of 2-(5-chloro-2-(3-cyanobenzyloxy)-4-((2-methylbiphenyl-3-yl)methoxy)benzylamino)-2-methylpropanoic acid by caliper method (Rvb= 63%). Type of data set: functional. As to conditions: 336 h, time 14 day, read-out: TGI.

A short description of data set [21]: Aqueous solubility of the compound incubated for 24 hrs by HPLC based shake-flask method. The format is physicochemical. As to conditions: buffer.
Data set [22] in a line: AUC (0 to infinity) in Sprague-Dawley rat at 10 mg/kg, po measured upto 48 hrs by LC-MS/MS analysis. As to conditions: in vivo. The arrangement: route oral, dose 10 mg/kg, time <=48. The format is ADME, organism-based.
The next data set has as its system Mus musculus. Nature of the data set: Myelosuppression in C57BL/6 mouse assessed as change in lymphocyte count at 50 mg/kg, IG administered once daily via gavage for 14 days. The following applies: in vivo, po, 336 h, time 14 day. Type of data set: toxicity, organism-based.
Data set [23] is described as follows: Cmax in Sprague-Dawley rat at 10 mg/kg, po measured upto 48 hrs by LC-MS/MS analysis. Set-up: route oral, dose 10 mg/kg, time <=48. The format is ADME, organism-based. The following applies: in vivo.
Data set [24] deals with B16-F10. Nature of the data set: Antitumour activity against mouse B16-F10 cells allografted in C57BL/6 mouse model assessed as decrease in PD-L1 expression level by Western blot analysis relative to control. The arrangement: scale not given: the % may be the effect or the level left. The format is functional. In general terms: In western blotting, separated proteins are transferred to a membrane and probed.

The nature of data set [25]: MRT (0 to infinity) in Sprague-Dawley rat at 2 mg/kg, iv measured upto 48 hrs by LC-MS/MS analysis. The format is ADME, organism-based. As to conditions: in vivo.
Data set [26] in a line: Toxicity in C57BL/6 mouse bearing B16-F10 tumor assessed as morphological changes in heart at 50 mg/kg, ip administered for 14 days by H and E staining based microscopic analysis. The format is organism-based. As to conditions: in vivo, 336 h, time 14 day.
Data set [27] in a line: Inhibition of pig brain tubulin polymerization by spectrophotometric analysis. The arrangement: species or system Sus scrofa.
A short description of data set [28]: Oral bioavailability in Sprague-Dawley rat at 10 mg/kg measured upto 48 hrs by LC-MS/MS analysis. Type of data set: ADME, organism-based. As to conditions: in vivo.

Structures are written as SMILES. Converted amounts (≈) assume the structure as drawn. The source made the active and inactive calls. The calls are words filed in the database; no cut-off is given here.

In the case of `COc1ccc(-c2ncc(C(=O)NCCCCCCC(=O)NO)[nH]2)c(OC)c1`, in the data set on B16-F10 [1], the outcome was Active.
By Tmax is commonly meant the time from dosing to the highest level. As usually defined, the half-life is how long it takes for the measured level to halve. By AUC(0-t) is commonly meant exposure summed from dosing to a finite time, without extrapolation to infinity. What is called AUC(0-inf) is total exposure, with the tail of the curve extrapolated. A word on the Cmax: it is the maximum level reached in the sampled fluid or tissue. Usually MRT inf stands for a mean duration of stay, worked out from the concentration-time curve. Usually thermodynamic solubility stands for the concentration in solution at equilibrium with solid. In general, AUC refers to the area under the concentration-time curve, a measure of exposure. A word on the IC50: it is the concentration needed to halve the response being measured. As usually defined, the bioavailability is the share of a dose that reaches the circulation, judged against a reference dose that is usually intravenous. `COc1ccc(-c2ncc(C(=O)NCCCCCCC(=O)NO)s2)c(OC)c1`: the Tmax in [2] was found to be 4.98 min; in data set [17], 5.3 h. Moreover, the Activity entry is listed as “Non-Toxic” in [3]; 8.72% with B16-F10 [5]; “Non-Toxic” in data set [6]; “Non-Toxic” in data set [8]; “Non-Toxic” in data set [11]; 26.3% in the data set with B16-F10 [12]. In addition, the Activity result in [13] is on record as “Non-Toxic”; in the data set on Mus musculus, “Non-Toxic”; in the data set with B16-F10 [24], 20%; in [26], “Non-Toxic”. Also, the “Ratio IC50” value in data set [4] was determined as 6; in data set [18], 1.2. In data set [7], this molecule showed a half-life of 6.2 h. In addition, in [9], the AUC(0-t) at 48 h turned out to be 134 ng·h/mL. Also, in [10], the AUC(0-inf) amounted to 319 ng·h/mL. Moreover, the inhibition in vivo at 10 mg/kg with B16-F10 [14] came to 69%. The Cmax in data set [15] came to 875 ng/mL; in [23], 35 ng/mL. For the same molecule, the MRT inf is 8.5 h in data set [16] and 1.6 h in [25]. Moreover, the Vz/F in data set [19] stood at 76.5 L/kg. Also, the inhibition in vivo at 50 mg/kg in the data set on B16-F10 [20] came to 58%. Besides, in data set [21], the thermodynamic solubility at 24 h is 41.3 µg/mL (≈ 101 µM). This molecule also registered an AUC in [22] of 138.6 ng·h/mL. The molecule further came in with an IC50 in data set [27] above 100 µM. In data set [28], the bioavailability was 8.7%.
